Laboratory results: ChEMBL document CHEMBL4616632, “Discovery of Cyclic Boronic Acid QPX7728, an Ultrabroad-Spectrum Inhibitor of Serine and Metallo-β-lactamases” (J Med Chem, 2020)

Assays:
[1] = test system: Klebsiella pneumoniae; assay: Inhibition of Klebsiella pneumoniae KP1009 CTX-M-15 assessed as minimum concentration of compound required to reduce the MIC of aztreonam to 4 ug/ml
[2] = test system: Pseudomonas aeruginosa; assay: Inhibition of Pseudomonas aeruginosa PAM 2035 AmpC assessed as minimum concentration of compound needed to reduce the MIC of aztreonam to 4 ug/ml
[3] = molecular target: Beta-lactamase (Klebsiella pneumoniae) (UniProt Q93LQ9); assay: Inhibition of Klebsiella pneumoniae KP1004 KPC-2 assessed as minimum concentration of compound needed to reduce the MIC of aztreonam to 4 ug/ml
Beta-lactamase (Klebsiella pneumoniae), sequence (Q93LQ9 as listed by the source): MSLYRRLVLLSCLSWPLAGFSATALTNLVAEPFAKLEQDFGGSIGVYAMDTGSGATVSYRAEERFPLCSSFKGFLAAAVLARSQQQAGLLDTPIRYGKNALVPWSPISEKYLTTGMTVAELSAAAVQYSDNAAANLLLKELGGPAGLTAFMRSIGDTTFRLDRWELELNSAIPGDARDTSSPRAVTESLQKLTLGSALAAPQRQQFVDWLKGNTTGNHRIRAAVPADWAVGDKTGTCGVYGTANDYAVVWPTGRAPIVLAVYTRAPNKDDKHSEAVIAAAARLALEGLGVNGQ

[4] = test system: Escherichia coli; assay: Inhibition of Escherichia coli EC308 SHV-5 assessed as minimum concentration of compound needed to reduce the MIC of aztreonam to 4 ug/ml
[5] = test system: Enterobacter cloacae; assay: Inhibition of Enterobacter cloacae ECL1002 AmpC assessed as minimum concentration of compound needed to reduce the MIC of aztreonam to 4 ug/ml
[6] = test system: Escherichia coli; assay: Inhibition of Escherichia coli EC302 TEM-10 assessed as minimum concentration of compound needed to reduce the MIC of aztreonam to 4 ug/ml
[7] = test system: Escherichia coli; assay: Inhibition of Escherichia coli ECM6619 TEM-10 assessed as minimum concentration of compound needed to reduce the MIC of aztreonam to 4 ug/ml
[8] = test system: Klebsiella pneumoniae; assay: Inhibition of Klebsiella pneumoniae KP1081 NDM-1 assessed as minimum concentration of compound required to reduce the MIC of biapenem to 1 ug/ml
[9] = test system: Acinetobacter baumannii; assay: Inhibition of Acinetobacter baumannii AB1053 OXA-72 assessed as minimum concentration of compound needed to reduce the MIC of meropenem to 8 ug/ml
[10] = molecular target: Beta-lactamase OXA-23 (Acinetobacter baumannii) (UniProt Q9L4P2); assay: Inhibition of Acinetobacter baumannii AB1054 OXA-23 assessed as minimum concentration of compound needed to reduce the MIC of meropenem to 8 ug/ml
Beta-lactamase OXA-23 (Acinetobacter baumannii), sequence (Q9L4P2 whole entry): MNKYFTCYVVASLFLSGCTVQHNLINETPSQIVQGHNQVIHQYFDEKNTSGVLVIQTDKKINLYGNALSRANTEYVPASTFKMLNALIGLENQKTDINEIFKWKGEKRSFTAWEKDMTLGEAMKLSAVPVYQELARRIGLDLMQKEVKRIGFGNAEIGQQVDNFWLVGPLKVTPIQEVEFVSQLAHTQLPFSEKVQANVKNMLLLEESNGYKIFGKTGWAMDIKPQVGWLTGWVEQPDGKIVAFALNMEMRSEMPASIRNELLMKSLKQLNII

[11] = test system: Klebsiella pneumoniae; assay: Inhibition of Klebsiella pneumoniae KP1160 IMP-26 assessed as minimum concentration of compound needed to reduce the MIC of meropenem to 1 ug/ml
[12] = test system: Klebsiella pneumoniae; assay: Inhibition of Klebsiella pneumoniae KP1054 VIM-1 assessed as minimum concentration of compound required to reduce the MIC of biapenem to 1 ug/ml
[13] = test system: Escherichia coli; assay: Inhibition of Escherichia coli ECM6625 SHV-5 assessed as minimum concentration of compound needed to reduce the MIC of aztreonam to 4 ug/ml
[14] = test system: Escherichia coli; assay: Inhibition of Escherichia coli KP308 SHV-5 assessed as minimum concentration of compound required to reduce the MIC of aztreonam to 4 ug/ml

| MEC [1] | MEC [2] | MEC [3] | MEC [4] | MEC [5] | MEC [6] | MEC [7] | MEC [8] | MEC [9] | MEC [10] | MEC [11] | MEC [12] | MEC [13] | MEC [14] | SMILES |
| --- | --- | --- | --- | --- | --- | --- | --- | --- | --- | --- | --- | --- | --- | --- |
| 0.6 µg/mL | > 20 µg/mL | 2.5 µg/mL | 0.16 µg/mL | 2.5 µg/mL | 1.25 µg/mL |  |  |  |  |  |  |  |  | CSCC(=O)N[C@H]1Cc2ccc(SCC(N)=O)c(C(=O)O)c2OB1O |
| 2.5 µg/mL | > 20 µg/mL | 5 µg/mL | < 0.3 µg/mL | 5 µg/mL | 2.5 µg/mL |  |  |  |  |  |  |  |  | CSCC(=O)N[C@H]1Cc2ccc(Sc3nncn3C)c(C(=O)O)c2OB1O |
| 2.5 µg/mL | > 20 µg/mL | 5 µg/mL | 0.08 µg/mL | 5 µg/mL | 5 µg/mL |  |  |  |  |  |  |  |  | CSCC(=O)N[C@H]1Cc2ccc(OCC(=O)O)c(C(=O)O)c2OB1O |
| 2.5 µg/mL | > 20 µg/mL | 5 µg/mL | < 0.3 µg/mL | 2.5 µg/mL | 2.5 µg/mL |  |  |  |  |  |  |  |  | CSCC(=O)N[C@H]1Cc2ccc(Sc3nnc(N)s3)c(C(=O)O)c2OB1O |
| 2.5 µg/mL | 10 µg/mL | 1.25 µg/mL |  | 2.5 µg/mL | 5 µg/mL | 5 µg/mL | 2.5 µg/mL | 1.25 µg/mL | 2.5 µg/mL | > 20 µg/mL | 20 µg/mL | 1.25 µg/mL | 1.25 µg/mL | COc1ccc2c(c1C(=O)O)OB(O)CC21CC1 |
| 10 µg/mL | 10 µg/mL | 2.5 µg/mL |  | 10 µg/mL | 20 µg/mL | 20 µg/mL | > 20 µg/mL | 20 µg/mL | > 20 µg/mL | > 20 µg/mL | > 20 µg/mL | 20 µg/mL | 20 µg/mL | COc1ccc2c(c1C(=O)O)OB(O)C=C2 |
| 1.25 µg/mL | > 20 µg/mL | 1.25 µg/mL | < 0.3 µg/mL | 5 µg/mL | 2.5 µg/mL |  |  |  |  |  |  |  |  | CSCC(=O)N[C@H]1Cc2ccc(OCCO)c(C(=O)O)c2OB1O |
| 20 µg/mL | 10 µg/mL | 1.25 µg/mL |  | 20 µg/mL | 5 µg/mL | 5 µg/mL | 20 µg/mL | 5 µg/mL | 10 µg/mL | > 20 µg/mL | 20 µg/mL | 10 µg/mL | 10 µg/mL | O=C(O)c1nccc2c1OB(O)[C@H]1C[C@@H]21 |
| 20 µg/mL | 20 µg/mL | 5 µg/mL |  | 10 µg/mL | > 20 µg/mL | > 20 µg/mL | 2.5 µg/mL | 10 µg/mL | 10 µg/mL | > 20 µg/mL | 2.5 µg/mL | 20 µg/mL | 20 µg/mL | COc1ccc2c(c1C(=O)O)OB(O)[C@@H](CCO)C2 |
| 10 µg/mL | 20 µg/mL | 1.25 µg/mL |  | 2.5 µg/mL | 5 µg/mL | 5 µg/mL | 0.6 µg/mL | 2.5 µg/mL | 10 µg/mL | 2.5 µg/mL | 0.16 µg/mL | 5 µg/mL | 5 µg/mL | COc1ccc2c(c1C(=O)O)OB(O)C1(CO)CC21 (stereo not drawn) |
| 0.3 µg/mL | 5 µg/mL | 0.16 µg/mL |  | 0.3 µg/mL | 0.3 µg/mL | 0.3 µg/mL | 0.6 µg/mL | 0.6 µg/mL | 1.25 µg/mL | 5 µg/mL | 0.08 µg/mL | 0.3 µg/mL | 0.3 µg/mL | COc1ccc2c(c1C(=O)O)OB(O)C1CC21 (stereo not drawn) |
| 10 µg/mL | 10 µg/mL | 5 µg/mL |  | 10 µg/mL | 10 µg/mL | 10 µg/mL | 10 µg/mL | 5 µg/mL | 10 µg/mL | 20 µg/mL | 5 µg/mL | 10 µg/mL | 10 µg/mL | COc1ccc2c(c1C(=O)O)OB(O)C1CCC21 (stereo not drawn) |
| > 20 µg/mL | 1.25 µg/mL | 5 µg/mL |  | > 20 µg/mL | > 20 µg/mL | > 20 µg/mL | 10 µg/mL | > 20 µg/mL | > 20 µg/mL | > 20 µg/mL | 20 µg/mL | > 20 µg/mL | > 20 µg/mL | C[C@@H]1Cc2cccc(C(=O)O)c2OB1O |
| 2.5 µg/mL | 2.5 µg/mL | 0.6 µg/mL |  | 5 µg/mL | 0.3 µg/mL | 0.3 µg/mL | 2.5 µg/mL | 0.3 µg/mL | 1.25 µg/mL | > 20 µg/mL | 0.3 µg/mL | 0.6 µg/mL | 0.6 µg/mL | O=C(O)c1nccc2c1OB(O)[C@@H]1C[C@H]21 |
| 0.6 µg/mL | 0.6 µg/mL | 0.16 µg/mL |  | 0.3 µg/mL | 0.16 µg/mL | 0.16 µg/mL | 0.6 µg/mL | 5 µg/mL | 10 µg/mL | 20 µg/mL | 0.16 µg/mL | 0.3 µg/mL | 0.3 µg/mL | O=C(O)c1cccc2c1OB(O)[C@@H]1C[C@H]21 |
| 1.25 µg/mL | 10 µg/mL | 1.25 µg/mL |  | 10 µg/mL | 5 µg/mL | 5 µg/mL | 2.5 µg/mL | 5 µg/mL | 10 µg/mL | > 20 µg/mL | 10 µg/mL | 1.25 µg/mL | 1.25 µg/mL | COc1ccc2c(c1C(=O)O)OB(O)C1C2C1(F)F (stereo not drawn) |
| 1.25 µg/mL | > 20 µg/mL | 2.5 µg/mL | 0.04 µg/mL | 5 µg/mL | 1.25 µg/mL |  |  |  |  |  |  |  |  | CSCC(=O)N[C@H]1Cc2ccc(SCCO)c(C(=O)O)c2OB1O |
| 0.6 µg/mL | 2.5 µg/mL | 0.16 µg/mL |  | 1.25 µg/mL | 0.6 µg/mL | 0.6 µg/mL | 0.6 µg/mL | 0.6 µg/mL | 1.25 µg/mL | 20 µg/mL | 0.3 µg/mL | 0.3 µg/mL | 0.3 µg/mL | COc1ccc2c(c1C(=O)O)OB(O)[C@H]1C[C@@H]21 |
| > 20 µg/mL | 1.25 µg/mL | 1.25 µg/mL |  | 20 µg/mL | > 20 µg/mL | > 20 µg/mL | 1.25 µg/mL | > 20 µg/mL | > 20 µg/mL | > 20 µg/mL | 5 µg/mL | 20 µg/mL | 20 µg/mL | C[C@H]1Cc2cccc(C(=O)O)c2OB1O |
| 10 µg/mL | 2.5 µg/mL | 0.16 µg/mL |  | 10 µg/mL | 5 µg/mL | 5 µg/mL | 1.25 µg/mL | 20 µg/mL | 20 µg/mL | > 20 µg/mL | 10 µg/mL | 5 µg/mL | 5 µg/mL | O=C(O)c1cccc2c1OB(O)[C@H]1C[C@@H]21 |
| 0.6 µg/mL | 20 µg/mL | 1.25 µg/mL | 0.6 µg/mL | 10 µg/mL | 5 µg/mL |  |  |  |  |  |  |  |  | CSCC(=O)N[C@H]1Cc2ccc(SC3CNC3)c(C(=O)O)c2OB1O |
| > 20 µg/mL | 10 µg/mL | 5 µg/mL |  | 10 µg/mL | > 20 µg/mL | > 20 µg/mL | 10 µg/mL | > 20 µg/mL | > 20 µg/mL | > 20 µg/mL | 5 µg/mL | > 20 µg/mL | > 20 µg/mL | COc1ccc2c(c1C(=O)O)OB(O)C1(CC1)C2 |
| 0.6 µg/mL | 20 µg/mL | 0.6 µg/mL | 0.04 µg/mL | 1.25 µg/mL | 1.25 µg/mL |  |  |  |  |  |  |  |  | CSCC(=O)N[C@H]1Cc2ccc(SC)c(C(=O)O)c2OB1O |
